Test results as given in article PMC8147177, “Bio-Insecticide of Thymus vulgaris and Ocimum basilicum Extract from Cell Suspensions and Their Inhibitory Effect against Serine, Cysteine, and Metalloproteinases of the Red Palm Weevil (Rhynchophorus ferrugineus)” (Insects, 2021).
Values after ≈ are worked out from the molar mass of the structure shown.

What was measured:
Format in all cases: biochemical, Rhynchophorus ferrugineus
[1] = tested on: cysteine proteinase of R. ferrugineus midgut; experiment: Cysteine proteinase specific activity assay (Z-Phe-Arg-MNA) in 4th instar midgut homogenate; settings: for Specific activity, Cysteine Protease: control 0.59 ± 0.05
Method: (§1) Specific protease inhibitors were added to the reactions of proteolytic activity determination assays, and the inhibitors were: PMSF, a general serine proteinase inhibitor; TLCK, a trypsin-like serine proteinase inhibitor; TPCK, a chymotrypsin-like serine proteinase inhibitor; an iodoacetic acid-like cysteine proteinase inhibitor; an EDTA-like metalloproteinase inhibitor; and leupeptin, a general proteinase inhibitor. The 4th midgut larval homogenates of a lab strain were prepared as described above in the assay for enzyme activity determination. The inhibition assay was carried out on a microplate assay as described above. A series of inhibitor concentrations was prepared in order to establish the maximum inhibition by each inhibitor. The leupeptin (0.01, 0.05, 0.1, and 1.0 mM), PMSF (0.1, 1.0, 10, and 50 mM), TLCK and TPCK (0.01, 0.05, 0.1, 1, 50, and 100 mM), EDTA (0.1, 1, 10, 50, and 100 mM), and iodoacetic acid concentrations (0.01, 0.05, 0.1, and 1 mM) were dissolved in the assay buffers.
(§2) To identify the proteases present in the R. ferrugineus 4th midgut larval instar homogenate preparations, different mechanistic class inhibitors were tested. In all protease types, enzyme samples of 10 µL and inhibitors or extracts from the cell suspension after 40 days or pure compounds (thymol, p-cymene, γ-terpinene, β-caryophyllene, linalool, estragole, β-terpineol, ocimene, 1,8-cineole, germacrene D, and eugenol) (1, 10, 50, 100, 500, 1000, and 5000 mg/L) were pre-incubated for 10 min before adding the substrate. An assay mixture without inhibitors was used as control. Absorbance was measured using an ELISA plate reader at different nm according to the type of enzymes. Percent activity of the control for each inhibitor was calculated to each enzyme.

[2] = tested on: total proteases of R. ferrugineus midgut; experiment: Total proteolytic enzyme activity (azocasein) in 4th instar larval midgut homogenate; settings: for Specific activity, Total Proteases: control 25.83 ± 0.45; for IC50 against total proteases: in vitro, midgut of 4th instar larvae
Method: Protein determination was carried out according to the Lowry method. Total proteolytic enzyme activity using azocasein was assessed in the 4th midgut instars larvae homogenate of R. ferrugineus according to Olga et al., [42] with modifications. The 4th midgut larvae homogenates of lab strain (10 larvae) were pulled out gently, excised, and washed using a saline solution (0.9% (w/v) NaCl) repeatedly and then homogenized using 500 µL of an assay buffer. The midgut instar was homogenized in 500 µL of a protease assay buffer [50 mM HEPS (N-2-hydroxyelthyl piperazin-N′-2-ehtanesulphonic acid), pH 8.0, 5 mM dithiothreitol (DTT) and 0.1% (v/v) Triton X-100]. The reserve homogenates that were obtained from a previous step were centrifuged at 5000× g for 30 min using a Sigma 3k30 cooling centrifuge. The supernatants were used for estimation of the total proteolytic enzyme activity and protein concentration. Ten microliters of supernatant per assay was incubated in a total volume of 60 µL of assay buffer (pH 8) for 20 min at 37 °C before the addition of 200 µL of azocasien (2%, w/v in an assay buffer).
In all cases, enzyme samples of 10 μL, hydro distillate extract from the cell suspension after 40 days, and pure compounds (thymol, estragole, p-cymene, γ-terpinene, linalool, β-terpineol, ocimene, eugenol, 1,8-cineole, β-Caryophyllene, and germacrene D) (50, 100, 500, 1000, and 5000 mg/L) were pre-incubated together for 10 min. Substrate was then added to start the reaction (20 min for Leupeptin). The reaction lasted for 180 min at 37 °C and was then stopped using 300 µL of cold 10% (v/v) trichloroacetic acid (TCA). The reaction mixture was centrifuged at 5000× g for 20 min using the Sigma 3k30 cooling centrifuge. Ten microliters of NaOH (10 N) was added to the supernatant, and absorbency at 450 nm was measured using an ELISA plate reader. An assay mixture without an enzyme was used as a blank, the specific activity of total proteolytic enzymes was calculated as OD450. mg^−1·protein^−1·h^−1, and a blank sample was determined without an enzyme solution.
as §1, §2

[3] = molecular target: elastase-like proteinase of R. ferrugineus midgut; experiment: Elastase-like serine proteinase specific activity assay (SAAPLpNA) in 4th instar midgut homogenate; settings: for IC50 against elastase: in vitro, midgut of 4th instar larvae; for Specific activity, Elastase: control 8.23 ± 0.02
Method: (§3) Serine proteinase specific activities were assayed, as described by Olga et al. with modifications, using a rapid microplate assay with synthetic substrates in 150 µL reaction mixtures containing a serine protease assay buffer (100 mM Tris-HCl, pH 8.1). Na-benzoyl-L-arginine ρ-nitroanilide (BAρNA) was evaluated for trypsin-like proteinases, N-succinyl-ala-alapro-leucine ρ-nitroanilide (SAAPLρNA) for elastase-like proteinases, and N-succinyl-ala-ala-pro-phenylalanine ρ-nitroanilide (SAAPFρNA) for chymotrypsin-like proteinases.
(§4) The 4th instar midguts were homogenized with the assay buffer. The homogenates of midguts were centrifuged at 8000× g for 30 min using Sigma 3K 30 rotors No. 12158 (Sigma laboratories centrifuge 3K30). Enzyme (10 µL) was added to each plate well (containing 40 µL of buffers) for the assays chymotrypsin-, trypsin-, and elastase-like proteinases. Stock substrates of BAρNA (100 mg/mL in DMSO), SAAPFρNA (100 mg/mL in DMF), and SAAPLρNA (100 mg/mL in DMF) were diluted to 1.0 mg/mL with an assay buffer. The total volume of the substrate was 50 µL. The reaction mixture was immediately incubated at 37 °C for 15 min and then stopped with 50 µL 30% acetic acid. Nitroaniline was measured at 405 nm using an ELISA plate reader. An assay mixture with a denaturation enzyme instead of a live enzyme was used as the blank well. Specific proteinase activities were expressed in OD/min mg protein in triplicate (for three substrates).
as §1, §2

[4] = molecular target: trypsin-like serine proteinase of R. ferrugineus midgut; experiment: Trypsin-like serine proteinase specific activity assay (BApNA) in 4th instar midgut homogenate; settings: for IC50 against trypsin-like serine proteinase: in vitro, midgut of 4th instar larvae; for Specific activity, Trypsin: control 4.10 ± 0.11
Method: as §3, §4, §1, §2

[5] = tested on: metalloproteinase of R. ferrugineus midgut; experiment: Metalloproteinase specific activity assay (azocasein) in 4th instar midgut homogenate; settings: control 1.15
Method: The 4th midgut larvae (10 larvae) were pulled out gently, excised, washed with saline solution (0.9% NaCl) repeatedly to remove foodstuff and then homogenized in a 500 µL assay buffer. […] The homogenates were centrifuged at 5000× g for 30 min using the Sigma 3k30 cooling centrifuge. The supernatants were used for estimation of enzyme activity and protein concentration. […] The reaction was stopped with 300 µL of cold 10% trichloroacetic acid (TCA) and proceeded for 180 min at 37 °C. The reaction mixture was centrifuged at 5000× g for 20 min using the Sigma 3k30 cooling centrifuge, 10 µL of 10 N NaOH was added to the supernatant, and absorbance at 450 nm was measured using an ELISA plate reader. An assay mixture without an enzyme was used as the blank. […] Specific protease inhibitors were added to the reactions of proteolytic activity determination assays, and the inhibitors were: PMSF, a general serine proteinase inhibitor; […] The inhibition assay was carried out on a microplate assay as described above. A series of inhibitor concentrations was prepared in order to establish the maximum inhibition by each inhibitor. […] An assay mixture without inhibitors was used as control. Absorbance was measured using an ELISA plate reader at different nm according to the type of enzymes. Percent activity of the control for each inhibitor was calculated to each enzyme.

[6] = tested on: chymotrypsin-like serine proteinase of R. ferrugineus midgut; experiment: Chymotrypsin-like serine proteinase specific activity assay (SAAPFpNA) in 4th instar midgut homogenate; settings: for Specific activity, Chymotrypsin: control 7.35 ± 0.02
Method: as §3, §4, §1, §2

## O=C(O)CI [Iodoacetic acid, iodoacetic acid]
[1]; cysteine protease inhibitor
  Inhibition of midgut instar proteases (in words): significantly inhibited
[1]; inhibitor 0.01 mM
  Specific activity, Cysteine Protease: 0.28 ± 0.04 OD/mg protein min
[1]; inhibitor 0.05 mM
  Specific activity, Cysteine Protease: 0.24 ± 0.05 OD/mg protein min
[1]; inhibitor 0.1 mM
  Specific activity, Cysteine Protease: 0.19 ± 0.04 OD/mg protein min
[1]; inhibitor 1 mM
  Specific activity, Cysteine Protease: 0.16 ± 0.05 OD/mg protein min

## CC(=O)N[C@@H](CC(C)C)C(=O)N[C@@H](CC(C)C)C(=O)N[C@H](C=O)CCCNC(=N)N [Leupeptin, leupeptin]
[2]; inhibitor 0.01 mM
  Specific activity, Total Proteases: 0.12 ± 0.05 OD/mg protein min
[2]; inhibitor 0.05 mM
  Specific activity, Total Proteases: 0.08 ± 0.05 OD/mg protein min
[2]; inhibitor 0.1 mM
  Specific activity, Total Proteases: 0.07 ± 0.05 OD/mg protein min
[2]; inhibitor 1 mM
  Specific activity, Total Proteases: 0.01 ± 0.05 OD/mg protein min

## CC1=CCC(C(C)C)=CC1 [γ-terpinene]
[3]
  IC50 against elastase: 163 µg/mL (≈ 1200 µM)
[2]
  IC50 against total proteases: 137.3 µg/mL (≈ 1010 µM)
[4]
  IC50 against trypsin-like serine proteinase: 105.7 µg/mL (≈ 776 µM)

## Cc1ccc(C(C)C)cc1 [p-cymene]
[3]
  IC50 against elastase: 169 µg/mL (≈ 1260 µM)
[2]
  IC50 against total proteases: 121.8 µg/mL (≈ 907 µM)
[4]
  IC50 against trypsin-like serine proteinase: 98.4 µg/mL (≈ 733 µM)

## O=C([O-])CN(CCN(CC(=O)O)CC(=O)O)CC(=O)[O-].[Na+].[Na+] [EDTA, ethylenediaminetetraacetic acid disodium salt]
[5]; inhibitor 0.1 mM
  Specific activity, Metallo-Protease: 0.89 ± 0.11 OD/mg protein min
[5]; inhibitor 1 mM
  Specific activity, Metallo-Protease: 0.80 ± 0.11 OD/mg protein min
[5]; inhibitor 10 mM
  Specific activity, Metallo-Protease: 0.68 ± 0.11 OD/mg protein min
[5]; inhibitor 50 mM
  Specific activity, Metallo-Protease: 0.59 ± 0.1 OD/mg protein min
[5]; inhibitor 100 mM
  Specific activity, Metallo-Protease: 0.42 ± 0.1 OD/mg protein min

## CC12CCC(CC1)C(C)(C)O2 [1,8-cineole]
[3]
  IC50 against elastase: 116 µg/mL (≈ 752 µM)
[2]
  IC50 against total proteases: 92.1 µg/mL (≈ 597 µM)
[4]
  IC50 against trypsin-like serine proteinase: 71.7 µg/mL (≈ 465 µM)

## Cc1ccc(S(=O)(=O)N[C@@H](Cc2ccccc2)C(=O)CCl)cc1 [TPCK, N,alpha-tosyl-L-phenylalanine chloromethyl ketone]
[6]; chymotrypsin-like serine proteinase inhibitor
  Inhibition of midgut instar proteases (in words): significantly inhibited
[6]; inhibitor 0.01 mM
  Specific activity, Chymotrypsin: 6.97 ± 0.03 OD/mg protein min
[6]; inhibitor 0.05 mM
  Specific activity, Chymotrypsin: 6.40 ± 0.02 OD/mg protein min
[6]; inhibitor 0.1 mM
  Specific activity, Chymotrypsin: 6.18 ± 0.02 OD/mg protein min
[6]; inhibitor 1 mM
  Specific activity, Chymotrypsin: 5.28 ± 0.02 OD/mg protein min
[6]; inhibitor 10 mM
  Specific activity, Chymotrypsin: 4.87 ± 0.02 OD/mg protein min
[6]; inhibitor 50 mM
  Specific activity, Chymotrypsin: 3.64 ± 0.03 OD/mg protein min
[6]; inhibitor 100 mM
  Specific activity, Chymotrypsin: 2.02 ± 0.02 OD/mg protein min

## C=CC(C)(O)CCC=C(C)C (stereo not drawn) [linalool]
[3]
  IC50 against elastase: 109.1 µg/mL (≈ 707 µM)
[2]
  IC50 against total proteases: 197 µg/mL (≈ 1280 µM)

## C=CCc1ccc(O)c(OC)c1 [eugenol]
[2]
  IC50 against total proteases: 99.7 µg/mL (≈ 607 µM)
[4]
  IC50 against trypsin-like serine proteinase: 74.1 µg/mL (≈ 451 µM)

## Cc1ccc(C(C)C)c(O)c1 [thymol]
[3]
  IC50 against elastase: 195 µg/mL (≈ 1300 µM)
[2]
  IC50 against total proteases: 189.7 µg/mL (≈ 1260 µM)

## Cc1ccc(S(=O)(=O)N[C@@H](CCCCN)C(=O)CCl)cc1 [TLCK, N,p-tosyl-L-lysine chloromethyl ketone]
[4]; inhibitor 0.01 mM
  Specific activity, Trypsin: 3.90 ± 0.11 OD/mg protein min
[4]; inhibitor 0.05 mM
  Specific activity, Trypsin: 3.82 ± 0.1 OD/mg protein min
[4]; inhibitor 0.1 mM
  Specific activity, Trypsin: 3.57 ± 0.1 OD/mg protein min
[4]; inhibitor 1 mM
  Specific activity, Trypsin: 3.41 ± 0.09 OD/mg protein min
[4]; inhibitor 10 mM
  Specific activity, Trypsin: 3.08 ± 0.1 OD/mg protein min
[4]; inhibitor 50 mM
  Specific activity, Trypsin: 2.84 ± 0.09 OD/mg protein min
[4]; inhibitor 100 mM
  Specific activity, Trypsin: 2.12 ± 0.1 OD/mg protein min
[4]; trypsin-like serine proteinase inhibitor
  Inhibition of midgut instar proteases (in words): significantly inhibited

## O=S(=O)(F)Cc1ccccc1 [PMSF, phenymethanesulfonyl fluoride]
[3]; inhibitor 0.1 mM
  Specific activity, Elastase: 6.46 ± 0.01 OD/mg protein min
[3]; inhibitor 1 mM
  Specific activity, Elastase: 5.26 ± 0.03 OD/mg protein min
[3]; inhibitor 10 mM
  Specific activity, Elastase: 4.18 ± 0.03 OD/mg protein min
[3]; inhibitor 50 mM
  Specific activity, Elastase: 3.98 ± 0.0 OD/mg protein min
[2]; purified proteases from midgut 4th larval instars
  Inhibition of midgut proteases (in words): strongly inhibited

## C=C(C)C1CCC(C)(O)CC1 (stereo not drawn) [β-terpineol]
[2]
  IC50 against total proteases: 214 µg/mL (≈ 1390 µM)
